ChEMBL document CHEMBL1201862, “PubChem BioAssay data set” (2004)
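Briefly, cells in 96-well plates were exposed to five compound concentrations for 48 h, and endpoints were estimated by linear interpolation. Abbreviation: GI50, concentration required for 50% inhibition of growth.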 Calls of active or inactive are those of the source. Rule as the data show it: active = GI50 up to about 1.1 µM and inactive = higher.

Key:
Experiment in all cases: inhibition of tumour cell growth, NCI panel, 48 h
OVCAR-3 = system: OVCAR-3
MDA-MB-435 = system: MDA-MB-435
A498 = system: A498
Hs-578T = system: Hs-578T
U-251 = system: U-251
A549 = system: A549
OVCAR-8 = system: OVCAR-8
SF-295 = system: SF-295
COLO 205 = system: COLO 205
OVCAR-4 = system: OVCAR-4
SK-MEL-2 = system: SK-MEL-2
SW-620 = system: SW-620
UACC-257 = system: UACC-257
K562 = system: K562
786-0 = system: 786-0
DU-145 = system: DU-145
MDA-MB-231 = system: MDA-MB-231
SK-OV-3 = system: SK-OV-3
BT-549 = system: BT-549

| SMILES | GI50 (OVCAR-3) | GI50 (MDA-MB-435) | GI50 (A498) | GI50 (Hs-578T) | GI50 (U-251) | GI50 (A549) | GI50 (OVCAR-8) | GI50 (SF-295) | GI50 (COLO 205) | GI50 (OVCAR-4) | GI50 (SK-MEL-2) | GI50 (SW-620) | GI50 (UACC-257) | GI50 (K562) | GI50 (786-0) | GI50 (DU-145) | GI50 (MDA-MB-231) | GI50 (SK-OV-3) | GI50 (BT-549) |
| --- | --- | --- | --- | --- | --- | --- | --- | --- | --- | --- | --- | --- | --- | --- | --- | --- | --- | --- | --- |
| N[C@H]1CCN(c2c(F)cc3c(=O)c(C(=O)O)cn4c3c2Oc2c-4ccc3c2ccc2ccccc23)C1 | 13.1 µM (inactive) | 1.05 µM (active) | 10.4 µM (inactive) | 0.731 µM (active) | 0.121 µM (active) | 1.12 µM (inactive) | 0.664 µM (active) | 1.48 µM (inactive) | 1.13 µM (inactive) | 0.535 µM (active) | 9.77 µM (inactive) | 0.276 µM (active) | 0.288 µM (active) | 0.583 µM (active) | 0.128 µM (active) | 0.942 µM (active) | 4.91 µM (inactive) | – | – |
| CC1C(c2ccc3c(c2)OCO3)c2cc3c(cc2OC1N1CCCCC1)OCO3 (stereo not drawn) | 41.6 µM (inactive) | 25.2 µM (inactive) | – | 35.4 µM (inactive) | – | > 100 µM (inactive) | > 100 µM (inactive) | 30.6 µM (inactive) | 36.5 µM (inactive) | – | 33.6 µM (inactive) | 55 µM (inactive) | > 100 µM (inactive) | 35.7 µM (inactive) | 61.5 µM (inactive) | 52.8 µM (inactive) | – | – | – |
| Oc1ccccc1/C=N/N1C(=S)N(c2ccccc2)C(=N\c2ccccc2)/C1=N/c1ccccc1 | 15 µM (inactive) | 22.3 µM (inactive) | 5.33 µM (inactive) | 4.53 µM (inactive) | 2.79 µM (inactive) | 13.9 µM (inactive) | 4.97 µM (inactive) | 8.39 µM (inactive) | 3.27 µM (inactive) | 1.27 µM (inactive) | 17.7 µM (inactive) | 22.3 µM (inactive) | 25.1 µM (inactive) | 28.6 µM (inactive) | 2.72 µM (inactive) | 16.9 µM (inactive) | 10 µM (inactive) | 13.9 µM (inactive) | – |
| COc1ccc(N(CN2C(=O)CCC2OC)C(C)=O)cc1 (stereo not drawn) | > 100 µM (inactive) | > 100 µM (inactive) | > 100 µM (inactive) | > 100 µM (inactive) | > 100 µM (inactive) | > 100 µM (inactive) | > 100 µM (inactive) | > 100 µM (inactive) | > 100 µM (inactive) | > 100 µM (inactive) | > 100 µM (inactive) | > 100 µM (inactive) | > 100 µM (inactive) | > 100 µM (inactive) | > 100 µM (inactive) | > 100 µM (inactive) | > 100 µM (inactive) | > 100 µM (inactive) | – |
| C=CCN(N=O)C(=O)N(CCCC(NC(C)=O)C(=O)NCc1ccccc1)Cc1ccccc1 (stereo not drawn) | 31 µM (inactive) | – | 99.3 µM (inactive) | – | 78.7 µM (inactive) | 61.9 µM (inactive) | 67.3 µM (inactive) | 38.5 µM (inactive) | 90.4 µM (inactive) | 36.1 µM (inactive) | > 100 µM (inactive) | 61.4 µM (inactive) | 57.7 µM (inactive) | 37 µM (inactive) | 80.5 µM (inactive) | – | – | > 100 µM (inactive) | – |
| CSCCCN(CCCSC)CCCSC | > 100 µM (inactive) | 55.6 µM (inactive) | – | – | > 100 µM (inactive) | > 100 µM (inactive) | > 100 µM (inactive) | > 100 µM (inactive) | > 100 µM (inactive) | > 100 µM (inactive) | – | > 100 µM (inactive) | > 100 µM (inactive) | 97.5 µM (inactive) | > 100 µM (inactive) | > 100 µM (inactive) | > 100 µM (inactive) | > 100 µM (inactive) | > 100 µM (inactive) |
| O=C1NCC(NC(=O)C(F)(F)F)c2c(Br)sc(Br)c21 (stereo not drawn) | > 100 µM (inactive) | > 100 µM (inactive) | > 100 µM (inactive) | – | > 100 µM (inactive) | > 100 µM (inactive) | > 100 µM (inactive) | > 100 µM (inactive) | > 100 µM (inactive) | > 100 µM (inactive) | > 100 µM (inactive) | > 100 µM (inactive) | > 100 µM (inactive) | > 100 µM (inactive) | > 100 µM (inactive) | > 100 µM (inactive) | > 100 µM (inactive) | > 100 µM (inactive) | > 100 µM (inactive) |
| COC(=O)c1sc2ncc3c(c2c1N)CC(C)CC3 (stereo not drawn) | > 100 µM (inactive) | > 100 µM (inactive) | > 100 µM (inactive) | – | > 100 µM (inactive) | > 100 µM (inactive) | – | > 100 µM (inactive) | > 100 µM (inactive) | > 100 µM (inactive) | > 100 µM (inactive) | > 100 µM (inactive) | > 100 µM (inactive) | > 100 µM (inactive) | 81.3 µM (inactive) | > 100 µM (inactive) | > 100 µM (inactive) | > 100 µM (inactive) | > 100 µM (inactive) |
| S=c1oc(CCCCCCCCc2nn(CNc3ccc(Cl)cc3)c(=S)o2)nn1CNc1ccc(Cl)cc1 | – | 10.4 µM (inactive) | > 100 µM (inactive) | – | > 100 µM (inactive) | > 100 µM (inactive) | – | 4.92 µM (inactive) | 7.38 µM (inactive) | > 100 µM (inactive) | > 100 µM (inactive) | > 100 µM (inactive) | 40 µM (inactive) | 6.89 µM (inactive) | > 100 µM (inactive) | > 100 µM (inactive) | > 100 µM (inactive) | > 100 µM (inactive) | > 100 µM (inactive) |
| c1cc2nnc1SCCSCCSc1ccc(nn1)SCCSCCS2 | > 100 µM (inactive) | > 100 µM (inactive) | > 100 µM (inactive) | > 100 µM (inactive) | > 100 µM (inactive) | > 100 µM (inactive) | > 100 µM (inactive) | > 100 µM (inactive) | > 100 µM (inactive) | > 100 µM (inactive) | > 100 µM (inactive) | > 100 µM (inactive) | > 100 µM (inactive) | > 100 µM (inactive) | > 100 µM (inactive) | > 100 µM (inactive) | 40.6 µM (inactive) | > 100 µM (inactive) | – |
| COC(=O)C1(C(=O)OC)N=C(C)OC1/C=C/c1ccccc1 (stereo not drawn) | > 100 µM (inactive) | > 100 µM (inactive) | > 100 µM (inactive) | – | > 100 µM (inactive) | > 100 µM (inactive) | > 100 µM (inactive) | > 100 µM (inactive) | > 100 µM (inactive) | > 100 µM (inactive) | > 100 µM (inactive) | > 100 µM (inactive) | > 100 µM (inactive) | > 100 µM (inactive) | > 100 µM (inactive) | > 100 µM (inactive) | – | > 100 µM (inactive) | > 100 µM (inactive) |
| O=C(O)CCCCC1CCSS1 (stereo not drawn) [LIPOIC ACID, ALPHA] | > 100 µM (inactive) | > 100 µM (inactive) | – | > 100 µM (inactive) | > 100 µM (inactive) | > 100 µM (inactive) | > 100 µM (inactive) | > 100 µM (inactive) | > 100 µM (inactive) | > 100 µM (inactive) | > 100 µM (inactive) | > 100 µM (inactive) | > 100 µM (inactive) | > 100 µM (inactive) | > 100 µM (inactive) | > 100 µM (inactive) | > 100 µM (inactive) | – | – |
